Measurements as given in PMC9503112, “Synthesis, Molecular Docking, In Vitro and In Vivo Studies of Novel Dimorpholinoquinazoline-Based Potential Inhibitors of PI3K/Akt/mTOR Pathway” (International Journal of Molecular Sciences, 2022).

What was measured:
[1] = system: PI3K/Akt/mTOR signaling pathway in MCF7 cells; assay: Immunoblotting of PI3K/Akt/mTOR phosphorylation; assay type: cell-based, human; conditions: 500 nM
Description: MCF7 cells were seeded onto 100 mm dishes (Corning) and cultivated for 24 h. Compound 7c was added at different concentrations while the reference compound wortmannin (Selleckchem, Houston, TX, USA) was used at 500 nM. The cells were harvested after 72 h of growth with the compounds. To prepare cell extracts, MCF7 cells were twice washed in phosphate buffer and incubated for 10 min on ice in the modified lysis buffer containing 50 mM Tris-HCl, pH 7.5, 0.5% Igepal CA-630, 150 mM NaCl, 1 mM EDTA, 1 mM DTT, 1 mM PMSF, 0.1 mM sodium orthovanadate and aprotinin, leupeptin, pepstatin (1 µg/mL each). The protein content was determined by the Bradford method. Cell lysates were separated in 10% SDS-PAGE under reducing conditions, transferred to a nitrocellulose membrane (GE HealthCare, Chicago, IL, USA), and processed according to a standard protocol. To prevent nonspecific absorption, the membranes were treated with 5% nonfat milk solution in TBS buffer (20 mM Tris, 500 mM NaCl, pH 7.5) with 0.1% Tween-20 and then incubated with primary antibodies (Cell Signaling Technology, Danvers, MA, USA) overnight at 4 °C. […] Signals were detected using the ECL reagent using the ImageQuant LAS4000 system (GE HealthCare, Chicago, IL, USA).
The signals of phospho-proteins to total ones were calculated using the ImageJ program from inverted images of the bands.

keratinocytes HaCaT = assay: Antiproliferative activity, MTT assay; assay type: cell-based; conditions: Homo sapiens, 72 h, standard deviations within 50%
Description: (§1) Human breast cancer MCF7, MDA-MB-231, SkBr-3 (purchased from the ATCC collection), human keratinocytes HaCaT, murine fibroblasts L929 and macrophages J774 cells (Collection of Shemyakin-Ovchinnikov Institute of Bioorganic Chemistry RAS) were cultured in standard DMEM or RPMI-1640 medium (ThermoScientific, Waltham, MA, USA) supplemented with 10% fetal bovine serum (FBS, Cytiva, Marlborough, MA, USA) at 37 °C, 5 % CO2 and 80–85% humidity (NuAir CO2 incubator). The cell growth was evaluated by MTT (3-[4,5-dimethylthiazol-2-yl]-2,5-diphenyltetrazolium bromide) test. Cells were seeded at a density of 5 × 10^3 cells per well in 96-well flat-bottomed plates (TPP). The compounds were dissolved in DMSO (AppliChem) to 10 mM before the experiments, and then the resulting solutions were diluted by the medium to the required concentrations. Solutions of the tested compounds with different concentrations in 100 μL of the medium were added and the cells were grown for 72 h. MTT (10 μL/well, 5 mg/mL) was added for the final 3 h. The formazan purple crystals were dissolved in DMSO (100 μL per well). The absorbance of solutions was measured at 540 nm with a MultiScan reader (ThermoFisher). Results were analyzed by Excel package (Microsoft). The inhibition of proliferation (inhibitory index) was calculated as [1–(ODexperiment/ODcontrol)], where OD was MTT optical density. IC50 (Table 1) was determined as the concentration giving 50% of inhibition in the comparison with it […].

MCF7 = assay: Antiproliferative activity, MTT assay; assay type: cell-based; conditions: Homo sapiens, 72 h, standard deviations within 50%
Description: as §1

MDA-MB-231 = assay: Antiproliferative activity, MTT assay; assay type: cell-based, human; conditions: Homo sapiens, MDA-MB-231; MTT, 72 h; standard deviations within 50%
Description: as §1

fibroblasts L929 = assay: Antiproliferative activity, MTT assay; assay type: cell-based, murine; conditions: Mus musculus, 72 h, standard deviations within 50%
Description: as §1

macrophages J774 = assay: Antiproliferative activity, MTT assay; assay type: cell-based, murine; conditions: Mus musculus, 72 h, standard deviations within 50%
Description: as §1

SkBr-3 cells = assay: Cell cycle analysis (PI-stained DNA, flow cytometry); assay type: cell-based, human
Description: The cell cycle was analyzed using PI-stained DNA. Cells from the compounds 7 treated cultures were collected at 24, 48, and 72 h, trypsinized, washed in ice-cold PBS, fixed by the addition of 70% ethanol and left for 2 h at −20 °C. Thereafter, the cells were washed twice in PBS, stained with 50 μg/mL of propidium iodide (Sigma, Merck KGaA, Darmstadt, Germany) in PBS, treated with 10 µg/mL of RNAse and analyzed by flow cytometry using FACScan device (BD, USA). A total of 2000 events were collected. The results were analyzed using FlowJo 10 software (BD, Franklin Lakes, NJ, USA).

MCF7 breast cancer cells = system: MCF7 breast cancer cells; parameters: method as in PMID 32825760; conditions: read-out: Concentration causing 50% suppression of MCF7 cell growth; cited from earlier work
[2] = molecular target: T1, recombinant PI3K (p110α/p85α) (Homo sapiens, UniProt P42336); assay: PI3K inhibition assay (HTRF); assay type: biochemical; conditions: FRET/HTRF detection; approximate; read-out: IC50 PI3Kα
T1 construct: purchased Millipore 14-602
T1 sequence (P42336 whole entry): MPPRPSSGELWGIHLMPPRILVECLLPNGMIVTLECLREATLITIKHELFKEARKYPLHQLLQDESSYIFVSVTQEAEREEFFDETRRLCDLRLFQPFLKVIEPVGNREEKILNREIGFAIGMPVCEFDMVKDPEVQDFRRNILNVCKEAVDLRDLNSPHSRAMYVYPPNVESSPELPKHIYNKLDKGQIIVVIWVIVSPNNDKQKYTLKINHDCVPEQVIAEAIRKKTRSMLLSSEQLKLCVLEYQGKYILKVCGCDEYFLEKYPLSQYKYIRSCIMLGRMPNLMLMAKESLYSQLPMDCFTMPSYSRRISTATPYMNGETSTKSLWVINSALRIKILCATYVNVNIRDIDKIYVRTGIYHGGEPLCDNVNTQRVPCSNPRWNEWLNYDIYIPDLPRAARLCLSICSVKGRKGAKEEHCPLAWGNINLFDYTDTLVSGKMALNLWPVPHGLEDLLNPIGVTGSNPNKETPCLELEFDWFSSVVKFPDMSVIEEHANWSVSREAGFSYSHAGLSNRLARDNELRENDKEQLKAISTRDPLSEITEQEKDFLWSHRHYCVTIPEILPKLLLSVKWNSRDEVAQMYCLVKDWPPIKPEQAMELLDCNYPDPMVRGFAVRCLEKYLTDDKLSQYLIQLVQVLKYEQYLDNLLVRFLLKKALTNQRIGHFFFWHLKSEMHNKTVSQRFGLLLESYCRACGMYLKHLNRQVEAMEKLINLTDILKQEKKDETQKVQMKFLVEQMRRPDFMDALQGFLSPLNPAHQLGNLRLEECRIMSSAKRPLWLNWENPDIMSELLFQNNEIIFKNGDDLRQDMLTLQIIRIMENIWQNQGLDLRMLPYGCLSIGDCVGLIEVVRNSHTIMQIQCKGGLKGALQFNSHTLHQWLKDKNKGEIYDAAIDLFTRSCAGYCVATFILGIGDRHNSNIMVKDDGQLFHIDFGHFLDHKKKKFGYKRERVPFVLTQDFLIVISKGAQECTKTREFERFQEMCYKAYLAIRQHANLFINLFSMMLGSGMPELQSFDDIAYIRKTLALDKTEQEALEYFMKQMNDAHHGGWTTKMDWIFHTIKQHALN
T1 sequence (P27986 whole entry partner): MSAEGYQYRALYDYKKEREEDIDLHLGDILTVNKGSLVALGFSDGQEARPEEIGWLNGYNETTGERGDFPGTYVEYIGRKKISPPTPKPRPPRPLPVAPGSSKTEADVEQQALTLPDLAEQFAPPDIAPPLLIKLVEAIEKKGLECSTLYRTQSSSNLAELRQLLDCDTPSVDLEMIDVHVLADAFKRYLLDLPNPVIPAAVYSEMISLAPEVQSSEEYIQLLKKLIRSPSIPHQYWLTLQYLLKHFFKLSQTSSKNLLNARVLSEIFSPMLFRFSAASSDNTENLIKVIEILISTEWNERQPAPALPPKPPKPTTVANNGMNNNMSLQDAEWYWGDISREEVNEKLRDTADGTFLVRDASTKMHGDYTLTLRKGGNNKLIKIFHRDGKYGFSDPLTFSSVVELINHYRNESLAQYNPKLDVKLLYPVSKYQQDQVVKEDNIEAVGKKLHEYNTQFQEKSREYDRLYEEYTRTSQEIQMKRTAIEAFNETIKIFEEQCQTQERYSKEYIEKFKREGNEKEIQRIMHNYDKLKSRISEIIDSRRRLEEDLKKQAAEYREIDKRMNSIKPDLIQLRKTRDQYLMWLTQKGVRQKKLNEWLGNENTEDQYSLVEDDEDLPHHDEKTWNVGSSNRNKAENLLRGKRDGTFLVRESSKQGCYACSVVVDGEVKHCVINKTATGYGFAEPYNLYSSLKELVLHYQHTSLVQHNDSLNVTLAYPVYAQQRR
Description: The PI 3-Kinase (Class I) HTRF Assay Kit (Cat# 33-016 from Millipore) was used to determine the activity of recombinant PI3K (p110α/p85α) human (Cat# 14-602 from Millipore). The kit was supplemented with ATP (Cat# A26209 from Sigma-Aldrich, St. Louis, MI, USA), DL-dithiothreitol (Cat# S-[…]-1 from Sigma-Aldrich), and Wortmannin inhibitor (Cat# 12-338 from Millipore, Burlington, MA, USA). The latter was used at 0.1 μM concentration. For measurements, a Victor ×5 plate reader (PerkinElmer, 2030, Waltham, MA, USA) was used in TRF mode with excitation at 340 nm. Fluorescence emission was recorded at 613 and 670 nm in a 384-well plate (Cat# S-CLS3658 from Sigma-Aldrich) at a time interval of 150-350 μs. The enzymatic reaction and the determination of its products were carried out according to the recommendations of the reagent kit manufacturer (Millipore) in two wells for each sample. In calculations, readings in parallel wells were averaged. The calculations were made according to the recommendations of the equipment manufacturer.

COC[C@H]1OC(=O)c2coc3c2[C@@]1(C)C1=C(C3=O)[C@@H]2CCC(=O)[C@@]2(C)C[C@H]1OC(C)=O [wortmannin, reference compound]
Effect on PI3K/Akt/mTOR signaling pathway [1]: neither affects PI3K/Akt/mTOR signaling pathway even at 500 nM

N[C@@H](CCCCNC(=O)Nc1ccc(-c2ccc3c(N4CCOCC4)nc(N4CCOCC4)nc3c2)cc1)C(=O)O [Compound 7e, N6-((4-(2,4-Dimorpholinoquinazolin-7-yl)phenyl)carbamoyl)lysine]
IC50 (keratinocytes HaCaT): 12 µM
IC50 (MCF7): 9.5 µM
melting point: 89 to 91 °C
IC50 (MDA-MB-231): 24 µM
IC50 (fibroblasts L929): 12 µM
IC50 (macrophages J774): 12 µM

COC(=O)c1ccc(NC(=O)Nc2ccc(-c3ccc4c(N5CCOCC5)nc(N5CCOCC5)nc4c3)cc2)cc1 [Compound 7j, Methyl 4-(3-(4-(2,4-Dimorpholinoquinazolin-7-yl)phenyl)ureido)benzoate]
Concentration above which all cells died (SkBr-3 cells): higher than 10 μM
Concentration below which no changes in the cell cycle were found (SkBr-3 cells): below 1 μM
IC50 (keratinocytes HaCaT): 3 µM
IC50 (MCF7): 3.8 µM
IC50 (MDA-MB-231): 4.1 µM
IC50 (fibroblasts L929): 3 µM
IC50 (macrophages J774): 0.8 µM

O=C(Nc1ccc(-c2ccc3c(N4CCOCC4)nc(N4CCOCC4)nc3c2)cc1)Nc1ccc([N+](=O)[O-])cc1 [Compound 7f, 1-(4-(2,4-Dimorpholinoquinazolin-7-yl)phenyl)-3-(4-nitrophenyl)urea]
IC50 (keratinocytes HaCaT): 3 µM
IC50 (MCF7): 6.5 µM
melting point: 240 to 242 °C
IC50 (MDA-MB-231): 8.8 µM
IC50 (fibroblasts L929): 12 µM
IC50 (macrophages J774): 6 µM

O=C(Nc1ccc(F)cc1)Nc1ccc(-c2ccc3c(N4CCOCC4)nc(N4CCOCC4)nc3c2)cc1 [Compound 7g, 1-(4-(2,4-Dimorpholinoquinazolin-7-yl)phenyl)-3-(4-fluorophenyl)urea]
IC50 (keratinocytes HaCaT): 25 µM
IC50 (MCF7): 4.9 µM
IC50 (MDA-MB-231): 14 µM
IC50 (fibroblasts L929): 25 µM
IC50 (macrophages J774): 6 µM

CN(C)C(=N)N=C(N)N [MF, metformin]
IC50 (MCF7 breast cancer cells): 5800 µM

Nc1ccc(-c2ccc3c(N4CCOCC4)nc(N4CCOCC4)nc3c2)cc1 [Compound 6, 4-(2,4-Dimorpholinoquinazolin-7-yl)aniline]
melting point: 191 to 193 °C

COc1ccc(CNC(=O)Nc2ccc(-c3ccc4c(N5CCOCC5)nc(N5CCOCC5)nc4c3)cc2)cc1 [Compound 7b, 1-(4-(2,4-Dimorpholinoquinazolin-7-yl)phenyl)-3-(4-methoxybenzyl)urea]
Concentration above which all cells died (SkBr-3 cells): higher than 10 μM
Concentration below which no changes in the cell cycle were found (SkBr-3 cells): below 1 μM
IC50 (keratinocytes HaCaT): 0.8 µM
IC50 (MCF7): 1.1 µM
IC50 (MDA-MB-231): 1.7 µM
IC50 (fibroblasts L929): 12 µM
IC50 (macrophages J774): 1.6 µM
IC50 [2]: ~50 µM

C#CCNC(=O)Nc1ccc(-c2ccc3c(N4CCOCC4)nc(N4CCOCC4)nc3c2)cc1 [Compound 7l, 1-(4-(2,4-Dimorpholinoquinazolin-7-yl)phenyl)-3-(prop-2-yn-1-yl)urea]
IC50 (keratinocytes HaCaT): 3 µM
IC50 (MCF7): > 50 µM
melting point: 168 to 170 °C
IC50 (MDA-MB-231): > 50 µM
IC50 (fibroblasts L929): > 50 µM
IC50 (macrophages J774): 6 µM

CCOC(=O)N1CCN(C(=O)Nc2ccc(-c3ccc4c(N5CCOCC5)nc(N5CCOCC5)nc4c3)cc2)CC1 [Compound 7k, Ethyl 4-((4-(2,4-Dimorpholinoquinazolin-7-yl)phenyl)carbamoyl)piperazine-1-carboxylate]
IC50 (keratinocytes HaCaT): 6 µM
IC50 (MCF7): 11 µM
melting point: 109 to 111 °C
IC50 (MDA-MB-231): 17 µM
IC50 (fibroblasts L929): 25 µM
IC50 (macrophages J774): 3 µM

O=C(NCc1ccco1)Nc1ccc(-c2ccc3c(N4CCOCC4)nc(N4CCOCC4)nc3c2)cc1 [Compound 7a, 1-(4-(2,4-Dimorpholinoquinazolin-7-yl)phenyl)-3-(furan-2-ylmethyl)urea]
IC50 (MCF7): 6.6 µM
melting point: 184 to 186 °C
IC50 (MDA-MB-231): 6.7 µM

O=C(Nc1ccc(-c2ccc3c(N4CCOCC4)nc(N4CCOCC4)nc3c2)cc1)Nc1ccccn1 [Compound 7h, 1-(4-(2,4-Dimorpholinoquinazolin-7-yl)phenyl)-3-(pyridin-2-yl)urea]
IC50 (keratinocytes HaCaT): 3 µM
IC50 (MCF7): 13 µM
melting point: 210 to 212 °C
IC50 (MDA-MB-231): 14 µM
IC50 (fibroblasts L929): 12 µM
IC50 (macrophages J774): 6 µM

O=C(Nc1ccc(-c2ccc3c(N4CCOCC4)nc(N4CCOCC4)nc3c2)cc1)Nc1cccc2ccccc12 [Compound 7i, 1-(4-(2,4-Dimorpholinoquinazolin-7-yl)phenyl)-3-(naphthalen-1-yl)urea]
IC50 (keratinocytes HaCaT): 6 µM
IC50 (MCF7): 6.1 µM
melting point: 228 to 230 °C
IC50 (MDA-MB-231): 11 µM
IC50 (fibroblasts L929): 6 µM
IC50 (macrophages J774): 6 µM

O=C(Nc1ccc(-c2ccc3c(N4CCOCC4)nc(N4CCOCC4)nc3c2)cc1)NC1CC1 [Compound 7d, 1-Cyclopropyl-3-(4-(2,4-dimorpholinoquinazolin-7-yl)phenyl)urea]
IC50 (MCF7): 5.2 µM
melting point: 83 to 85 °C
IC50 (MDA-MB-231): 10.5 µM
